Patent USRE36187E, “Acyclic pyrrolo [2,3-d]pyrimidine analogs as antiviral agents” (The Regents of the University of Michigan, priority 1994, dated 1999)

Experiments:
[1] = test system: HCMV; test: HCMV titer (yield) reduction assay in HFF cells; format: cell-based, human cytomegalovirus (Towne strain); details: for HCMV titer reduction activity: in words, FIG. 2 or FIG. 3; for HCMV titer reduction, fold better than acyclovir: FIG. 1
Excerpt: (§1) The 148 strain of HSV-1 was used in most experiments and was provided by Dr. T. W. Schafer of Schering Corporation. The HF strain of HSV-1 was used in selected experiments and was obtained from Dr. G. H. Cohen, University of Pennsylvania. The Towne strain, plaque-purified isolate Po, of HCMV was a gift of Dr. Mark Stinski, University of Iowa.
(§2) HCMV was titered in 24-well cluster dishes which were planted to contain 5×10^4 HFF cells/well, grown as described above. When the cells were 70 to 80% confluent, 0.2 ml of the virus suspension was added per wall and adsorbed as described above. At least three ten-fold dilutions of each preparation were used. Following virus adsorption, the cell sheets were overlayed with 0.5% methocel (4000 CPS) in maintenance medium [(MEM) with 1.1 gm/liter NaHCO3, 100 units/ml penicillin G, 100 μg/ml streptomycin, and 5% fetal bovine serum]. The cultures were incubated in a humidified atmosphere of 4% CO2 -96% air. Viral foci were visible 5 to 7 days after infection using at least 10-fold magnification. Cells were fixed and stained by a 10-minute exposure to a 0.1% solution of crystal violet in 20% methanol 7 to 12 days after infection. Microscopic foci were enumerated at 20-fold magnification using a Nikon Profile Projector.
For titer reduction assays, HFF cells were planted as described above in 24-well cluster dishes or in 25 cm^2 flasks. When monolayers were approximately 70% confluent, HCMV was added at a m.o.i. of 0.5 p.f.u. per cell and adsorbed as detailed above. Compounds dissolved in growth medium were added in one or one-half logarithm 10 dilutions and incubation continued at 37° C. After 7 to 10 days of incubation, culture dishes or flasks were frozen at […] For titer determination, cells were thawed and then subjected to two more cycles of freezing and thawing at 37° C. Serial, one-logarithm10 dilutions of the final suspension were prepared and inoculated onto new cultures of HFF cells. Titer determination was as detailed above in part (1) (b).
(§3) Dose-response relationships were used to compare drug effects. These were constructed by linearly regressing the percent inhibition of parameters derived in the preceding sections against log drug concentrations. The 50% inhibitory (I50) concentrations were calculated from the regression lines using the methods described by Goldstein. See Goldstein, A., Biostatistics: An Introductory Text, MacMillan, N.Y., 1964, pp. 156-161. Along with the I50 concentration for visual cytotoxicity, the averaged I50 concentrations are compared to I50 concentrations for inhibition for HCMV or HSV-1 replication. Compounds for which the ratio of cytotoxicity I50 concentrations to antiviral I50 concentrations (in vitro therapeutic index) were greater than 10, were considered for further study.

[2] = test system: HCMV; test: HCMV plaque (focus) reduction assay in HFF cells; format: cell-based, human cytomegalovirus (Towne strain); details: in words
Description: as §1
Stock HCMV was prepared by infecting HFF cells at a multiplicity of infection (m.o.i.) of less than 0.01 plaque-forming units (p.f.u.) per cell. Cell growth medium was changed every four days until cytopathology was evident in all cells (approximately 21 days). Supernatant fluids were retained as the virus stock. Four days later, the remaining cells were disrupted by three cycles of freeze-thawing and the cell plus medium held as an additional source of virus. Storage was in liquid nitrogen.
as §2
The effect of compounds of the replication of HCMV has been measured using both a plaque (focus) reduction assay and a titer (yield) reduction assay. For the former, HFF cells in 24-well culture dishes were infected with approximately 50 p.f.u. of HCMV per well using the procedures detailed above. Compounds dissolved in growth medium were added in three to six selected concentrations to triplicate wells following virus adsorption. Following incubation at 37° C. for 7 to 10 days, cell sheets were fixed, stained and microscopic foci were enumerated as described above. Drug effects were calculated as a percentage of reduction in number of foci in the presence of each drug concentration compared to the number observed in the absence of drug. DHPG (ganciclovir) was used as a positive control in all experiments.
as §3

[3] = test system: HFF cells; test: Growth of human diploid fibroblasts (HFF cells); format: cell-based; details: for population doubling of HFF cells: 100 μM, control cells underwent two doublings
Description: (§4) Population doubling times and cell viability were measured in uninfected HFF and/or KB cells. Cells were planted in replicate 6-well plastic tissue culture dishes or in 25 cm^2 flasks as described above in part 1. Following an incubation period during which cells attached to the substrate, medium was decanted, the cell sheet rinsed once with HBS, and fresh medium added. The medium consisted of MEM(E) with 1.1 gm NaHCO3 /liter and 10% fetal bovine or calf serum plus appropriate log or half-log concentrations of drug. After additional periods of incubation from 1 to 72 hours at 37° C., cells were harvested by means of 0.05% trypsin plus 0.02% EDTA in a HEPES-buffered salt solution. Cells were enumerated using either a Coulter counter or a hemocytometer and viability determining using […] dye exclusion.
The effect of these compounds on the growth of human diploid fibroblasts (HFF cells) was less pronounced. During a 70-hour incubation, control cells underwent two doublings. […] A 100 μM concentration reduced the number of cells by less than 10%.

[4] = test system: KB cells; test: Growth of KB cells (population doubling); format: cell-based, human
Description: as §4
In more extensive cytotoxicity testing, the halogenated compounds were tested for effects on the growth of KB cells. Populations doubling times were calculated from the logarithmic portions of growth curves and were as follows: […]

[5] = previously reported; cited from earlier work
[6] = test system: MCMV; test: Mortality of mice infected with murine cytomegalovirus; format: in vivo
Description: Compound UMJD 183 was tested in mice infected with murine cytomegalovirus (MCMV). This animal model has been recognized as having capabilities predictive of efficacy in humans.
(§5) Compound UMJD 183 and the drug ganciclovir (DHPG) were administered to groups of 15 mice each at doses and times of administration shown in Table 3. Each compound at all doses was administered intraperitoneally twice daily for five days beginning at either 6, 24 or 48 hours after virus inoculation. Animals were observed daily and the number dying each day recorded.
^a Animlas were treated i.p. twice daily for 5 days with the doses
stated above. Treatment was initiated at the times indicated following

[7] = Drug toxicity control in uninfected mice; format: in vivo
Description: as §5
Even when the compound was administered 48 hours after virus infection, compound UMJD 183 reduced mortality from 80-93% in controls to 40% in the presence of 5.6 mg/kg of the drug. When UMJD 183 was administered sooner, 6 or 24 hours after virus infection, mortality was reduced further to 7 or 20%, respectively.
^d Drug toxicity control. No virus administered.

[8] = Visual cytotoxicity in BSC-1 cells; format: cell-based, African green monkey; details: monkey, visual cytotoxicity at time of HSV-1 plaque enumeration, read-out: 50% Inhibitory Concentration, Cytotoxicity BSC
Excerpt: Cytotoxicity produced in HFF and BSC-1 cells was estimated by visual scoring of cells not affected by virus infection in the HCMV and HSV-1 plaque reduction assays. Cytopathology was estimated at 35- and 60-fold magnification and scored on a zero to four plus basis. Wells were scored on the day of staining.

[9] = 1.9 mg/kg i.p. twice daily, from 6 h
[10] = 1.9 mg/kg i.p. twice daily, from 24 h
[11] = 1.9 mg/kg i.p. twice daily, from 48 h
[12] = 5.6 mg/kg i.p. twice daily, from 6 h
[13] = 5.6 mg/kg i.p. twice daily, from 24 h
[14] = 5.6 mg/kg i.p. twice daily, from 48 h
[15] = 16.7 mg/kg i.p. twice daily, from 6 h
[16] = 16.7 mg/kg i.p. twice daily, from 24 h
[17] = 16.7 mg/kg i.p. twice daily, from 48 h
[18] = 50 mg/kg i.p. twice daily, from 6 h
[19] = 50 mg/kg i.p. twice daily, from 24 h
[20] = 50 mg/kg i.p. twice daily, from 48 h

SMILES: OCC(CO)OCn1cc(Br)c2c(NO)ncnc21 [UMJD 299, 4-hydroxylamino-5-bromo-7-[(1,3-dihydroxy-2-propoxy)methyl]pyrrolo[2,3-d]pyrimidine]
- HCMV titer reduction activity [1]: active and nearly as potent as the 4-amino analogs

SMILES: Nc1ncnc2c1c(Br)cn2COCCO [UMJD 102, 4Amino-5-bromo-7-(2-hydroxyethoxymethyl)pyrrolo[2,3-d]-pyrimidine]
- HCMV titer reduction, fold better than acyclovir [1]: approximately 10 fold
- activity against HCMV [2]: active against HCMV
- population doubling of HFF cells ([3]; 70 hours): one population doubling
- effect on growth of HFF cells ([3]; in words): more pronounced
- cytostatic effect ([4]; in words): cytostatic

SMILES: NC(=S)c1cn(COCCO)c2ncnc(N)c12 [UMJD 229, 4-Amino-7-(2-hydroxyethoxymethyl)pyrrolo[2,3-d]pyrimidine-5-thiocarboxamide]
- activity against HCMV [2]: active against HCMV

SMILES: N#Cc1cn([C@@H]2O[C@H](CO)[C@@H](O)[C@H]2O)c2ncnc(N)c12 [toyocamycin]
- broad spectrum antiviral activity [5]: Broad spectrum antiviral activity

SMILES: NC(=O)c1cn([C@@H]2O[C@H](CO)[C@@H](O)[C@H]2O)c2ncnc(N)c12 [sangivamycin]
- broad spectrum antiviral activity [5]: Broad spectrum antiviral activity

SMILES: Nc1ncnc2c1c(Cl)cn2COCCO [UMJD 100, 4-Amino-5-chloro-7-(2-hydroxyethoxymethyl)pyrrolo[2,3-d]-pyrimidine]
- activity against HCMV [2]: active against HCMV
- decrease in number of HFF cells ([3]; 10 or 32 μM, 70 hours, in words): no decrease in the number of cells
- effect on KB cell growth ([4]; 100 μM, in words): affected KB cell growth to only a minor extent

SMILES: Nc1ncnc2c1c(Br)cn2COC(CO)CO [UMJD 183, 4-amino-5-bromo-7-[(1,3-dihydroxy-2-propoxy)methyl]-pyrrolo[2,3-d]pyrimidine]
- MDD (Mean Day of Death) [6, 9]: 6.2
- Mortality Percent [6, 9]: 33%
- MDD (Mean Day of Death) [6, 10]: 4.8
- Mortality Percent [6, 10]: 60%
- MDD (Mean Day of Death) [6, 11]: 4.8
- Mortality Percent [6, 11]: 67%
- MDD (Mean Day of Death) [6, 12]: 8.0
- Mortality Percent [6, 12]: 7%
- MDD (Mean Day of Death) [6, 13]: 6.3
- Mortality Percent [6, 13]: 20%
- MDD (Mean Day of Death) [6, 14]: 5.5
- Mortality Percent [6, 14]: 40%
- increase in number of animals surviving ([6]; 5.6 mg/kg i.p., in words): highly significant increases in the number of animals surviving the virus infection
- MDD (Mean Day of Death) [6, 15]: 8.7
- Mortality Percent [6, 15]: 60%
- MDD (Mean Day of Death) [6, 16]: 7.1
- Mortality Percent [6, 16]: 80%
- MDD (Mean Day of Death) [6, 17]: 8.4
- Mortality Percent [6, 17]: 87%
- MDD (Mean Day of Death) [6, 18]: 10.8
- Mortality Percent [6, 18]: 60%
- MDD (Mean Day of Death) [6, 19]: 8.8
- Mortality Percent [6, 19]: 93%
- MDD (Mean Day of Death) [6, 20]: 7.5
- Mortality Percent [6, 20]: 97%
- effect on life span (mean day of death) ([6]; all doses, i.p.): prolonged life span (increased the mean day of death) at all doses
- HCMV titer reduction activity [1]: most active
- MDD (Mean Day of Death), Toxicity ([7]; 16.7 mg/kg, no virus): 5.0
- deaths in uninfected animals ([7]; all doses together, i.p.): 1 death in 60 animals
- toxicity in uninfected animals ([7]; in words, i.p.): virtually no toxicity
- time of KB cell growth in the presence of the drug before slowing or stopping ([4]; KB cells): up to 20 hours
- effect on growth of KB cells ([4]; in words): growth of KB cells also was inhibited, but to a lesser extent
- growth in the presence of up to 32 μM drug ([4]; up to 32 μM, 50 hours): at a reduced rate

SMILES: Nc1nc2c(ncn2COCCO)c(=O)[nH]1 [Acyclovir, reference compound]
- activity against HCMV [2]: only modest activity against HCMV
- CC50 [8]: > 100 µM

SMILES: OCC(CO)OCn1cc(I)c2c(NO)ncnc21 [UMJD 329, 4-hydroxylamino-5-iodo-7-[(1,3-dihydroxy-2-propoxy)methyl]pyrrolo[2,3-d]pyrimidine]
- HCMV titer reduction activity [1]: active and nearly as potent as the 4-amino analogs

SMILES: Nc1ncnc2c1c(I)cn2COCCO [UMJD 104, 4-Amino-5-iodo-7-(2-hydroxyethoxymethyl)pyrrolo[2,3-d]-pyrimidine]
- HCMV titer reduction, fold better than acyclovir [1]: approximately 10 fold
- activity against HCMV [2]: active against HCMV
- population doubling of HFF cells ([3]; 70 hours): one population doubling
- effect on growth of HFF cells ([3]; in words): more pronounced

SMILES: Nc1ncnc2c1ccn2[C@@H]1O[C@H](CO)[C@@H](O)[C@H]1O [tubercidin]
- broad spectrum antiviral activity [5]: Broad spectrum antiviral activity

SMILES: OCC(CO)OCn1cc(Cl)c2c(NO)ncnc21 [UMJD 328, 4-hydroxylamino-5-chloro-7-[(1,3-dihydroxy-2-propoxy)methyl]pyrrolo[2,3-d]pyrimidine]
- HCMV titer reduction activity [1]: active and nearly as potent as the 4-amino analogs
